Measured values published in patent US4431807A, “4-Methyl-5-(unsubstituted and substituted phenoxy)-6-methoxy-8-(aminoalkylamino)quinolines” (priority 1981, dated 1984).
Where “and” joins values, the source holds several entries; their conditions need not be identical. Identical values can stand only once.

Experiments:
Plasmodium berghei [1] = assay: Blood schizonticidal (suppressive) test, Rane mouse test, P. berghei; type: in vivo, Plasmodium berghei KBG 173 in ICR/HA Swiss mice; settings: for Toxic / Suppressive activity (active/inactive) / Cures (60 days survival): five mice; for Toxic / Extension of survival relative to controls / Suppressive activity (active/inactive) / Cures (60 days survival): Table III
Text: Blood Schizonticidal Test (Mouse), University of Miami, Rane (Suppressive)
This system is based on comparisons of responses to test compounds by Plasmodium berghei KBG 173 malaria in mice as expressed in mean survival times and the mean survival times of untreated controls. Thus, compounds noted as active produce increases in the survival times of the treated animals that are significant when compared with the survival times of untreated controls. Since an established disease is less sensitive to treatment than a disease in the early stages of development, treatment is withheld until the parasitemia is relatively high in order to insure a more reliable assay of activity and the selection of appropriate compounds for intensive preclinical studies.
Utilizing young ICR/HA Swiss mice and a standard inoculum of Plasmodium berghei KBG 173, it is possible to produce a uniform disease fatal to 100% of untreated animals within 6 to 8 days with a mean survival time of 6.2 days. Test animals weigh from 18 to 22 grams but weight variations in any given experimental or control group are confined to 2-3 grams. All animals in any given test are approximately of the same age. Animals on test are housed in metal-topped plastic cages, given a standard laboratory diet and water ad libitum.
Test animals receive an intraperitoneal injection of 0.5 ml of 1:100 dilution of heparinized heart's blood with a minimum of 90% parasitized cells (4×10^7 cells), drawn from donor mice infected one week earlier with Plasmodium berghei. The donor stran is maintained by weekly passages in separate groups of mice inoculated with a 0.5 ml of 1:500 dilution of heparinized heart's blood.
Test compounds are administered after dissolution or suspension in peanut oil. A single dose is given subcutaneously 72 hours after the mice are infected with Plasmodium berghei. At this time a 10-15 percent parasitemia has developed; the disease is well established but has not produced sufficient debility to alter the response of the host to toxic effects of the drug on test. Since treatment is withheld for three days to permit the infection to become well established and death occurs in untreated controls within 6-8 days, it is believed that this system presents a candidate compound with the maximum challenge. In order to check factors such as changes in the infectivity of Plasmodium berghei or in the susceptibility of the host or to detect technical errors, a group of infected animals treated with pyrimethamine at dose levels producing definite increases in survival time is included as a positive control in every experiment.
In each experiment test compounds are administered in graded doses. […] However, if an active drug is toxic for the host, its toxicity may become a limiting factor; continued increases in dose levels also increase the toxic effects and may result in the diminution of survival times. Deaths prior to the sixth day, when untreated controls begin to die, are regarded as non-parasitic and become the basis for toxicity evaluations. Treated animals are kept under observation for 60 days. Survivors at the end of this period of time are considered as cured.
An increase of 100% in mean survival time is considered the minimum effective response for a candidate compound. In calculating mean survival time, toxic deaths and 60 day survivors are not included.
The antimalarial activity data acquired by the two test procedures described above are listed in Tables 2 and 3 for the compounds of this invention. In Table 4, the most promising compound of the series, compound 1, is compared directly with primaquine together with some additional test data for compound 1 compared to primaquine. In all the work reported herein primaquine is used in the form of the diphosphate salt. The test data are expressed in the form of the number of cures at a given dose level. […]

Plasmodium cynomolgi = assay: Radical curative (tissue schizonticidal) test, SEATO, P. cynomolgi, rhesus monkey; type: in vivo, Plasmodium cynomolgi (strain B) in Indian rhesus monkeys; settings: for Molar Primaquine Index CD 100: primaquine CD100 dose / drug CD100 dose, in moles; for Radical curative activity relative to primaquine: in words
Experimental: Radical Curative Test in Rhesus Monkeys, SEATO Medical Research Laboratory, Bangkok, John Brown/Richard Andre
This test is designed to evaluate the tissue schizonticidal (radical curative) activity of test compounds. Well-conditioned Indian rhesus monkeys of either sex weighing 2-4 Kg are utilized. Plasmodium cynomolgi (strain B) sporozoites are prepared by grinding heavily infected Anopheles dirus salivary glands in 1:1 monkey serum-saline vehicle.
Monkeys are infected by I.V. injection of 10^6 freshly isolated P. cynomolgi sporozoites on day 0. A rapidly rising parasitemia develops after a 7-9 day prepatent period, and administration of the test drug is initiated when the rising parasite count exceeds 5000 per mm^3 (typically day 10-12). Test drugs are administered orally (by nasogastric intubation) once daily for 7 consecutive days in aqueous solution or, if insoluble, in suspension in 0.3% methylcellulose solution. Chloroquine diphosphate (3.1 mg/kg base/kg orally per day) is always administered concurrently with the test drug for 7 days to eliminate blood schizonts. Thus any tissue schizonticidal activity of the test drug will always be apparent even if it lacks blood schizonticidal activity.
A vehicle control monkey and a positive drug control (primaquine) monkey are included in each group of inoculated monkeys.
The effect of the test drug is determined by counting blood parasites. Parasite counts are made daily through day 20, and every two days thereafter. Initially a clearance of blood parasites is observed due to the blood schizonticidal action of chloroquine. […] If there is no relapse within 20 days of the initial clearance of parasitemia, the monkey is splenectomized and its parasitemia followed for an additional 30 days. If there is no relapse within this period, the experiment is terminated and the monkey is considered "cured".
Primaquine diphosphate cures over 90% of monkeys in this test system when administered at a dose of 1.3 mg/kg of salt per day for 7 days ([…]) in combination with chloroquine.
The antimalarial activity data acquired by the two test procedures described above are listed in Tables 2 and 3 for the compounds of this invention. In Table 4, the most promising compound of the series, compound 1, is compared directly with primaquine together with some additional test data for compound 1 compared to primaquine. In all the work reported herein primaquine is used in the form of the diphosphate salt. The test data are expressed in the form of the number of cures at a given dose level. Extension of life (mean survival time) relative to the controls is noted in the Rane mouse test; if the mean survival time is extended seven or more days, the compound is considered to be active.
The Molar Primaquine Index is useful in the radical curative test (Table II) as a gauge of the efficacy of a candidate drug relative to primaquine.

Plasmodium berghei [2] = settings: newer clinical suppressive drug; cited from earlier work

| SMILES | Toxic (Plasmodium berghei [1]; 640 mg/kg × 1, s.c.) | Molar Primaquine Index CD 100 (Plasmodium cynomolgi) | Cures (60 days survival) (Plasmodium berghei [1]; 10 mg/kg × 1, s.c.) | Cures (60 days survival) (Plasmodium berghei [1]; 20 mg/kg × 1, s.c.) | Cures (60 days survival) (Plasmodium berghei [1]; 40 mg/kg × 1, s.c.) | Cures (60 days survival) (Plasmodium berghei [1]; 80 mg/kg × 1, s.c.) | Cures (60 days survival) (Plasmodium berghei [1]; 160 mg/kg × 1, s.c.) | Cures (60 days survival) (Plasmodium berghei [1]; 320 mg/kg × 1, s.c.) | Cures (60 days survival) (Plasmodium berghei [1]; 640 mg/kg × 1, s.c.) | further results |
| --- | --- | --- | --- | --- | --- | --- | --- | --- | --- | --- |
| COc1cc(NC(C)CCCNC(C)C)c2nccc(C)c2c1Oc1cccc(C(F)(F)F)c1.O=C(O)CCC(=O)O (centres unmarked) [Compound 5, 8-((4-Isopropylamino-1-methylbutyl)amino)-6-methoxy-4-methyl-5-(3-trifluoromethylphenoxy)quinoline Succinate] | 4T | 1.3 | – | – | – | – | – | – | – | Suppressive activity (Plasmodium berghei [1]; in words, Table 3): totally ineffective |
| COc1cc(NCCCCC(C)N)c2nccc(C)c2c1Oc1cccc(C(F)(F)F)c1 (centres unmarked) [Compound 3, 8-((5-Amino-1-hexyl)amino)-6-methoxy-4-methyl-5-(3-trifluoromethylphenoxy)quinoline Hemisuccinate Hydrate] | – | 1.3 | 3C | 5C | 5C | 4C | 4C | – | – | Extension of survival relative to controls (Plasmodium berghei [1]; 5 mg/kg × 1, s.c.): 13 days; Suppressive activity (active/inactive) (Plasmodium berghei [1]; 5 mg/kg × 1, s.c.): A (Active, 7 Days or more estension of survival relative to controls.) |
| CCC(CCCN)Nc1cc(OC)c(Oc2cccc(C(F)(F)F)c2)c2c(C)ccnc12.O=C(O)CCC(=O)O (centres unmarked) [Compound 4, 8-((4-Amino-1-ethylbutyl)amino)-6-methoxy-4-methyl-5-(3-trifluoromethylphenoxy)-quinoline Succinate] | – | 1.3 | 3C | 5C | 5C | 5C | 5C | 5C | – | Cures (60 days survival) (Plasmodium berghei [1]; 640 mg/kg × 1, s.c., Succinate): 2C and 3C |
| COc1cc(NCCCC(C)N)c2nccc(C)c2c1Oc1cccc(C(F)(F)F)c1 (centres unmarked) [Compound 2, 8-((4-Amino-1-pentyl)amino)-6-methoxy-4-methyl-5-(3-trifluoromethylphenoxy)-quinoline Hemisuccinate] | – | 1.3 | – | 4C | 5C | – | – | – | – | – |
| COc1cc(NC(C)CCCN)c2nccc(C)c2c1Oc1ccc(Cl)cc1Cl (centres unmarked) [Compound 8, 8-((4-Amino-1-methylbutyl)amino))-5-(2,4-dichlorophenoxy)-6-methoxy-4-methylquinoline Phosphate] | 2T | 1.3 | 1C | 5C | 5C | 5C | 5C | 4C | 3C | Toxic (Plasmodium berghei [1]; 320 mg/kg × 1, s.c.): 1T |
| OC(c1cc(C(F)(F)F)nc2c(C(F)(F)F)cccc12)C1CCCCN1 (centres unmarked) [mefloquine] | – | – | – | – | – | – | – | – | – | Curative dose, Rane Test (Plasmodium berghei [2]): 20 mg/kg |
| COc1cc(NC(C)CCCN)c2nccc(C)c2c1Oc1ccc(F)cc1.O=P(O)(O)O (centres unmarked) [Compound 9, 8-((4-Amino-1-methylbutyl)amino)-5-(4-fluorophenoxy)-6-methoxy-4-methylquinoline Phosphate] | 2T | 4.5 | 3C | 4C | 5C | 5C | 5C | 4C | 3C | Extension of survival relative to controls (Plasmodium berghei [1]; 5 mg/kg × 1, s.c.): 7 days; Suppressive activity (active/inactive) (Plasmodium berghei [1]; 5 mg/kg × 1, s.c.): A (Active, 7 Days or more estension of survival relative to controls.); Toxic (Plasmodium berghei [1]; 320 mg/kg × 1, s.c.): 1T; minimal effective dose (Plasmodium berghei [1]; Plasmodium berghei, sc, single dose, read-out: Curative dose, suppressive test): 10 mg/kg; Toxicity in suppressive test (Plasmodium berghei [1]; relative to compound 1): somewhat more toxic; Radical curative activity relative to primaquine (Plasmodium cynomolgi): markedly superior to primaquine |
| COc1cc(NC(C)CCCN)c2nccc(C)c2c1Oc1ccc(Cl)c(Cl)c1.O=P(O)(O)O (centres unmarked) [Compound 7, 8-((4-Amino-1-methylbutyl)amino)-5-(3,4-dichlorophenoxy)-6-methoxy-4-methylquinoline Phosphate] | – | 1.3 | 5C | 5C | 5C | 5C | 5C | 5C | 5C | Cures (60 days survival) (Plasmodium berghei [1]; 5 mg/kg × 1, s.c.): 4C |
| COc1ccc(Oc2c(OC)cc(NC(C)CCCN)c3nccc(C)c23)cc1.O=P(O)(O)O (centres unmarked) [Compound 6, 8-((4-Amino-1-methylbutyl)amino)-6-methoxy-5-(4-methoxyphenoxy)-4-methylquinoline Phosphate] | 3T | 4.6 | – | 1C | 5C | 5C | 5C | 5C | 2C | Extension of survival relative to controls (Plasmodium berghei [1]; 10 mg/kg × 1, s.c.): 7 days; Suppressive activity (active/inactive) (Plasmodium berghei [1]; 10 mg/kg × 1, s.c.): A (Active, 7 Days or more estension of survival relative to controls.); Radical curative activity relative to primaquine (Plasmodium cynomolgi): markedly superior to primaquine |
